Values after ≈ are worked out from the molar mass of the structure shown.
Tests used:
MRSA KS6 = experiment: MIC, broth microdilution, MRSA KS6; format: cell-based, Staphylococcus aureus; conditions: for MIC-fold improvement vs. vancomycin: MRSA KS6, ratio of MIC of vancomycin and MIC of analogue; for MIC: Staphylococcus aureus MRSA KS6, read-out: MIC
How it was run: (§1)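 Controls (ultrapure water; broth not inoculated) were included throughout CLSI-compliant broth microdilution. One condition supplemented analogue or comparator with 10 μM vancomycin, final level.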

S. aureus VISA/HIP5827 = experiment: MIC, broth microdilution, vancomycin-intermediate S. aureus VISA HIP5827; format: cell-based, Staphylococcus aureus; conditions: for MIC: Staphylococcus aureus VISA/HIP5827, read-out: MIC; for MIC-fold improvement vs. vancomycin: VISA/HIP5827, ratio of MIC of vancomycin and MIC of analogue
How it was run: as §1

MRSA KS2 = experiment: MIC, broth microdilution, MRSA KS2; format: cell-based, Staphylococcus aureus; conditions: for MIC-fold improvement vs. vancomycin: MRSA KS2, ratio of MIC of vancomycin and MIC of analogue; for MIC: Staphylococcus aureus MRSA KS2, read-out: MIC
How it was run: as §1

[1] = system: S. aureus VSSA (ATCC 6538); experiment: MIC, broth microdilution, vancomycin-sensitive S. aureus (VSSA/MSSA, ATCC 6538); format: cell-based, Staphylococcus aureus; conditions: for MIC: Staphylococcus aureus VSSA, read-out: MIC; for MIC-fold improvement vs. vancomycin: VSSA, ratio of MIC of vancomycin and MIC of analogue
How it was run: as §1

[2] = system: human cervix carcinoma (HeLa) cells; experiment: Cytostatic activity, HeLa cell proliferation; format: cell-based; conditions: mean ± SD of three experiments; highest concentration tested 250 µM; 4 days; read-out: Toxicity (IC50) HeLa
How it was run: (§2)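 Coulter counter cell counts after 37°C culture with compound; IC50 = concentration giving 50% growth inhibition vs negative control. Incubation: L1210 2 d, CEM 3 d, HeLa 4 d. Suspension density before mixing with an equal volume of dilution: 300,000–500,000 cells/mL.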

E. faecalis VRE 6 = experiment: MIC, broth microdilution, vancomycin-resistant E. faecalis VRE 6 (VanA); format: cell-based, Enterococcus faecalis; conditions: for MIC: Enterococcus faecalis VRE 6 (vancomycin-resistant), read-out: MIC; for MIC-fold improvement vs. vancomycin: VRE 6, ratio of MIC of vancomycin and MIC of analogue
How it was run: as §1

E. faecalis VSE 1 = experiment: MIC, broth microdilution, vancomycin-sensitive E. faecalis (VSE 1); format: cell-based, Enterococcus faecalis; conditions: for MIC: Enterococcus faecalis VSE 1 (vancomycin-sensitive), read-out: MIC; for MIC-fold improvement vs. vancomycin: VSE 1, ratio of MIC of vancomycin and MIC of analogue
How it was run: as §1

E. faecalis VRE 53 = experiment: MIC, broth microdilution, vancomycin-resistant E. faecalis VRE 53 (VanA); format: cell-based, Enterococcus faecalis; conditions: for MIC: Enterococcus faecalis VRE 53 (vancomycin-resistant), read-out: MIC
How it was run: as §1

MRSA KS1 = experiment: MIC, broth microdilution, MRSA KS1; format: cell-based, Staphylococcus aureus; conditions: for MIC-fold improvement vs. vancomycin: MRSA KS1, ratio of MIC of vancomycin and MIC of analogue; for MIC: Staphylococcus aureus MRSA KS1, read-out: MIC
How it was run: as §1

[3] = system: L1210, CEM and HeLa cell lines; experiment: Cytostatic activity, average or summary over L1210, CEM and HeLa; format: cell-based; conditions: average of L1210, CEM and HeLa; read-out: Toxicity (IC50) Average
How it was run: as §2

MRSA KS89 = experiment: MIC, broth microdilution, MRSA KS89; format: cell-based, Staphylococcus aureus; conditions: for MIC-fold improvement vs. vancomycin: MRSA KS8, ratio of MIC of vancomycin and MIC of analogue; for MIC: Staphylococcus aureus MRSA KS8, read-out: MIC
How it was run: as §1

E. faecalis VRE 37 = experiment: MIC, broth microdilution, vancomycin-resistant E. faecalis VRE 37 (VanA); format: cell-based, Enterococcus faecalis; conditions: for MIC: Enterococcus faecalis VRE 37 (vancomycin-resistant), read-out: MIC; for MIC-fold improvement vs. vancomycin: VRE 37, ratio of MIC of vancomycin and MIC of analogue
How it was run: as §1

[4] = system: human T-lymphocyte (CEM) cells; experiment: Cytostatic activity, CEM cell proliferation; format: cell-based; conditions: mean ± SD of three experiments; highest concentration tested 250 µM; 3 days; read-out: Toxicity (IC50) CEM
How it was run: as §2

E. faecalis VRE 29 = experiment: MIC, broth microdilution, vancomycin-resistant E. faecalis VRE 29 (VanA); format: cell-based, Enterococcus faecalis; conditions: for MIC: Enterococcus faecalis VRE 29 (vancomycin-resistant), read-out: MIC
How it was run: as §1

[5] = system: Murine leukemia (L1210) cells; experiment: Cytostatic activity, L1210 cell proliferation; format: cell-based; conditions: mean ± SD of three experiments; highest concentration tested 250 µM; 2 days; read-out: Toxicity (IC50) L1210
How it was run: as §2

S. aureus VRSA = experiment: MIC, broth microdilution, vancomycin-resistant S. aureus (VRSA); format: cell-based, Staphylococcus aureus; conditions: for MIC: Staphylococcus aureus VRSA, read-out: MIC; for MIC-fold improvement vs. vancomycin: VRSA, ratio of MIC of vancomycin and MIC of analogue
How it was run: as §1

SMILES | MIC-fold improvement vs. vancomycin (MRSA KS6) | MIC (MRSA KS6) [µM] | MIC (S. aureus VISA/HIP5827) [µM] | MIC-fold improvement vs. vancomycin (S. aureus VISA/HIP5827) | MIC-fold improvement vs. vancomycin (MRSA KS2) | MIC (MRSA KS2) [µM] | MIC [1] [µM] | MIC-fold improvement vs. vancomycin [1] | IC50 [2] [µM] | MIC (E. faecalis VRE 6) [µM] | MIC-fold improvement vs. vancomycin (E. faecalis VRE 6) | MIC (E. faecalis VSE 1) [µM] | MIC-fold improvement vs. vancomycin (E. faecalis VSE 1) | MIC (E. faecalis VRE 53) [µM] | MIC-fold improvement vs. vancomycin (MRSA KS1) | MIC (MRSA KS1) [µM] | IC50 [3] [µM] | MIC-fold improvement vs. vancomycin (MRSA KS89) | MIC (MRSA KS89) [µM] | MIC (E. faecalis VRE 37) [µM] | also measured
CN[C@H](CC(C)C)C(=O)N[C@H]1C(=O)N[C@@H](CC(N)=O)C(=O)N[C@H]2C(=O)N[C@H]3C(=O)N[C@H](C(=O)N[C@H](C(=O)NCC(=O)Nc4ccc(Cl)cc4)c4cc(O)cc(O)c4-c4cc3ccc4O)[C@H](O)c3ccc(c(Cl)c3)Oc3cc2cc(c3O[C@@H]2O[C@H](CO)[C@@H](O)[C@H](O)[C@H]2O[C@H]2C[C@](C)(N)[C@H](O)[C@H](C)O2)Oc2ccc(cc2Cl)[C@H]1O [Vanc-6] | 2 | 0.39 (≈ 0.63 µg/mL) | 0.39 (≈ 0.63 µg/mL) | 16 | 2 | 0.39 (≈ 0.63 µg/mL) | 0.39 (≈ 0.63 µg/mL) | 2 | 91 ± 33 | 3.13 (≈ 5.06 µg/mL) | 64 | 0.39 (≈ 0.63 µg/mL) | 4 | 12.5 (≈ 20.2 µg/mL) | 2 | 0.39 (≈ 0.63 µg/mL) | 167 | 2 | 0.39 (≈ 0.63 µg/mL) | 12.5 (≈ 20.2 µg/mL) | MIC-fold improvement vs. vancomycin (E. faecalis VRE 37): 64; IC50 [4]: 159 ± 13 µM; MIC (E. faecalis VRE 29): 6.25 µM (≈ 10.1 µg/mL); IC50 [5]: > 250 µM; MIC (S. aureus VRSA): 3.13 µM (≈ 5.06 µg/mL); MIC-fold improvement vs. vancomycin (S. aureus VRSA): 32
CN[C@H](CC(C)C)C(=O)N[C@H]1C(=O)N[C@@H](CC(N)=O)C(=O)N[C@H]2C(=O)N[C@H]3C(=O)N[C@H](C(=O)N[C@H](C(=O)NCC(=O)Nc4ccc(OC)cc4)c4cc(O)cc(O)c4-c4cc3ccc4O)[C@H](O)c3ccc(c(Cl)c3)Oc3cc2cc(c3O[C@@H]2O[C@H](CO)[C@@H](O)[C@H](O)[C@H]2O[C@H]2C[C@](C)(N)[C@H](O)[C@H](C)O2)Oc2ccc(cc2Cl)[C@H]1O [Vanc-5] | 1 | 0.78 (≈ 1.26 µg/mL) | 0.39 (≈ 0.628 µg/mL) | 16 | 2 | 0.39 (≈ 0.628 µg/mL) | 0.39 (≈ 0.628 µg/mL) | 2 | > 250 | 6.25 (≈ 10.1 µg/mL) | 32 | 0.78 (≈ 1.26 µg/mL) | 2 | 12.5 (≈ 20.1 µg/mL) | 1 | 0.78 (≈ 1.26 µg/mL) | > 250 | 1 | 0.78 (≈ 1.26 µg/mL) | 12.5 (≈ 20.1 µg/mL) | MIC-fold improvement vs. vancomycin (E. faecalis VRE 53; VRE 53, ratio of MIC of vancomycin and MIC of analogue): 32; MIC-fold improvement vs. vancomycin (E. faecalis VRE 37): 64; IC50 [4]: > 250 µM; MIC (E. faecalis VRE 29): 12.5 µM (≈ 20.1 µg/mL); MIC-fold improvement vs. vancomycin (E. faecalis VRE 29; VRE 29, ratio of MIC of vancomycin and MIC of analogue): 32; IC50 [5]: > 250 µM; MIC (S. aureus VRSA): 12.5 µM (≈ 20.1 µg/mL); MIC-fold improvement vs. vancomycin (S. aureus VRSA): 8
